In one data set the target is Cytochrome P450 2C9 (Homo sapiens, UniProt P11712).
The next data set addresses Cytochrome P450 2D6 (Homo sapiens, UniProt P10635).
The target in the next data set is T1, Cytochrome P450 1A2 (Homo sapiens, UniProt P05177).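 Also: PubChem cytochrome P450 panel assay, CYP1A2 panel member.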
T1 sequence (P05177 whole entry): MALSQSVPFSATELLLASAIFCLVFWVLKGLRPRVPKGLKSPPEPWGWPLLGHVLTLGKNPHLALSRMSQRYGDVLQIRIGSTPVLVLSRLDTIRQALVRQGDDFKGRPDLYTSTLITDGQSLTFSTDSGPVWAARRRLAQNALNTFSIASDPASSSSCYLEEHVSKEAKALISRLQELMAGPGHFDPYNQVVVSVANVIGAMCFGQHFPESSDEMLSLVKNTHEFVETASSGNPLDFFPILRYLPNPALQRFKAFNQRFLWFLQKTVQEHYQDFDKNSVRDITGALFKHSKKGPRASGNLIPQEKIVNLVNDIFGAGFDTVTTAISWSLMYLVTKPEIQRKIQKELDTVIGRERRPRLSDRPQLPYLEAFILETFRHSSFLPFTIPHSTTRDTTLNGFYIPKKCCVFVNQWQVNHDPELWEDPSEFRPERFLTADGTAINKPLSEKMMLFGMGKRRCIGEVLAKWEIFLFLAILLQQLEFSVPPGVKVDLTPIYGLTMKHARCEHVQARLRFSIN

The target of a further data set is Cytochrome P450 2C19 (Homo sapiens, UniProt P33261). Description: Cytochrome panel assay with activity outcomes. Panel member name: p450-cyp2c19 Compounds with AC50 equal or less than 10 uM are considered active. It counts as functional.
Cytochrome P450 2C19, sequence (P33261 whole entry): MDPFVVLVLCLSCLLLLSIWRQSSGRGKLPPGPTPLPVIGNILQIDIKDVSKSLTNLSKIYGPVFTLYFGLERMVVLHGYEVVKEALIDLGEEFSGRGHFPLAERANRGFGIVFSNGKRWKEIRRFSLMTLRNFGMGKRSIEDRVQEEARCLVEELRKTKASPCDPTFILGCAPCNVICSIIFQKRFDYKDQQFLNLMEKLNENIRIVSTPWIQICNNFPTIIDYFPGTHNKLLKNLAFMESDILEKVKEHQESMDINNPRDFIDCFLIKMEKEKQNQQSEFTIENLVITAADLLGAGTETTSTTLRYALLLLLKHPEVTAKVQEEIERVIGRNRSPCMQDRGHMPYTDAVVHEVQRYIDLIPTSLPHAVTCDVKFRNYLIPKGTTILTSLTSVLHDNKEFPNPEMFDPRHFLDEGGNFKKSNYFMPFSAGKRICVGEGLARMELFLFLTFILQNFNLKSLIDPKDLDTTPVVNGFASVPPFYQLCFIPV
Data set [1] is described as follows: Luminescence Cell-Based Dose Response HTS to Identify Activators of Luciferase Translation or Activity in H4 […] Cells. [Related pubchem assays: 1829 (Project Summary), 1814 (Primary HTS)]. Type of data set: functional.
The nature of data set [2]: Luminescence Cell-Based Dose Retest to Confirm Inhibitors of Cancer Stem Cells. [Related pubchem assays (depositor defined):AID2717, AID2721]. It counts as functional. Conditions: Homo sapiens.
Data set [3] is described as follows: HEp-2 cell cytotoxicity, dose response, cytotoxicity control for RSV inhibitor project, HTS (AID 2410). As to conditions: human respiratory syncytial virus. Type of data set: functional.
The test system of the next data set is H4. Description: Luminescence Cell-Based Dose Response HTS to Identify Activators of 5'UTR Stem-Loop Driven Prion Protein mRNA Translation in H4 Neuroglioblastoma Cells. [Related pubchem assays: 1829 (Project Summary), 1814 (Primary HTS)]. Type of data set: functional. As to conditions: Homo sapiens.

Activity calls are given as the source filed them.

In general, AC50 refers to the concentration at which the activity in the assay is half-maximal. Usually EC50 stands for the concentration needed to bring the measured effect to its halfway point. As usually defined, the CC50 is the concentration at which the toxic effect on the cells reaches its halfway point.

Cytochrome P450 2C9, sequence (P11712 whole entry): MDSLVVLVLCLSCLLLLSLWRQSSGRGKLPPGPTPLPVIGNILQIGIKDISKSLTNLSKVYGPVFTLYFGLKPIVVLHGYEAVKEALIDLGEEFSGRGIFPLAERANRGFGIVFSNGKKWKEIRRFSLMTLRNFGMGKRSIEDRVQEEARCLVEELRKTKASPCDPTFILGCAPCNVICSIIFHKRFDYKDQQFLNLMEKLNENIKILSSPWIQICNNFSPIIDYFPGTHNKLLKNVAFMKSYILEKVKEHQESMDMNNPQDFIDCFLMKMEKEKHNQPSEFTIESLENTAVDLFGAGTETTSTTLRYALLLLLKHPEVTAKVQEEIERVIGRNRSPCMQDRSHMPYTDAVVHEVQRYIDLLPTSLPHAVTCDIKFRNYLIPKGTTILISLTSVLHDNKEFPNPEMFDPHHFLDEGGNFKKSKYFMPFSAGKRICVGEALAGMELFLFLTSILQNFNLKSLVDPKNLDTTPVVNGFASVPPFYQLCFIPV
Cytochrome P450 2D6, sequence (P10635 whole entry): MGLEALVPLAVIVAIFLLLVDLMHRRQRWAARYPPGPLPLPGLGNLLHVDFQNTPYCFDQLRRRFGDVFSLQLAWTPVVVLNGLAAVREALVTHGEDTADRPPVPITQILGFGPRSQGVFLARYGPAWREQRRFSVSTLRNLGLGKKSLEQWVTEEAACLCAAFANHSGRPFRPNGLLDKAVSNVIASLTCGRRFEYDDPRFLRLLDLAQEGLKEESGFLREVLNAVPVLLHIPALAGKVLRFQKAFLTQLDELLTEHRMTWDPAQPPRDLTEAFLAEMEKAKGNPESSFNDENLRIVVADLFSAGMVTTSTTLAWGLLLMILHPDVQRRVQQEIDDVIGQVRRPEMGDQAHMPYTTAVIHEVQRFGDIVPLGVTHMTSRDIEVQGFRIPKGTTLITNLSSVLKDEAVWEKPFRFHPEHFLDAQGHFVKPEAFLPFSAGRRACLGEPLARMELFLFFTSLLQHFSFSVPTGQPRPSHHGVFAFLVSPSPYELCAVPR

For `CCc1c(C)nc2ccc(Br)cc2c1Cl`, the concentration at half-maximal activity (AC50) on Cytochrome P450 2C9 is 11.2 µM (inconclusive).

As for `Cc1cc(F)ccc1S(=O)(=O)Nc1ccccc1C(=O)Nc1ccccc1N1CCOCC1`, on Cytochrome P450 2D6, the AC50 is 15.8 µM (inconclusive).

As for `Cc1ccc(C2NC(c3ccc(C)cc3)C(C)C(=NO)C2C)cc1` (stereo not drawn), the concentration at half-maximal activity (AC50) on Cytochrome P450 1A2 is 15.8 µM (inconclusive).

With `CCOC(=O)c1[nH]c(C)c(C(=O)OCC(=O)N2c3ccccc3CC2C)c1C` (stereo not drawn), the AC50 at Cytochrome P450 1A2 was 12.6 µM (inconclusive).

As to `COCCn1c(=O)c(CCc2ccccc2)nc2cnc(N(C)C)nc21`, the half-maximal activity concentration (AC50) on Cytochrome P450 2D6 is 10 µM (inconclusive); at Cytochrome P450 2C9, 25.1 µM (inconclusive).

With `Cc1c(Br)c([N+](=O)[O-])nn1CC(=O)NCc1cccs1`, the half-maximal activity concentration (AC50) on Cytochrome P450 2D6 is 5.01 µM (inconclusive); at Cytochrome P450 2C19 (read-out: AC50), 5.01 µM (inconclusive); at Cytochrome P450 1A2 it was 14.1 µM (inconclusive).

Regarding `Cc1ccc(-n2c(CCC(=O)O)ccc2-c2cccs2)cc1C`, at Cytochrome P450 2C9, the AC50 is 7.08 µM (inconclusive).

`CN(Cc1ccco1)c1ncncc1-c1cccc(NS(C)(=O)=O)c1`: the values for the AC50 at Cytochrome P450 2D6 and at Cytochrome P450 2C9 were 20 µM (inconclusive) and 0.501 µM (inconclusive), respectively.

For the molecule `CC(C)OC(=O)C(C#N)c1nc2ccccc2nc1N1CCN(Cc2ccccc2)CC1` (stereo not drawn), on Cytochrome P450 2D6, the AC50 is 0.112 µM (inconclusive).

As for `N#CCCn1c(=O)c(-c2cccc(C#N)c2)nc2cnc(Oc3ccccc3)nc21`, the AC50 is 20 µM (inconclusive) on Cytochrome P450 1A2 and 39.8 µM (inconclusive) at Cytochrome P450 2C9.

With `CCCCSc1ncc(C(=O)OCC)c(N)n1`, in data set [1], the EC50 was 125 nM (active).

`O=C(CSCc1cccc(Cl)c1)Nc1ccccc1-c1ccccc1`: the concentration at half-maximal activity (AC50) in data set [2] was 21.7 µM (active).

As for `COc1ccc2cc3cc(C(=O)Nc4ccc5c(c4)OCO5)oc3nc2c1`, on Cytochrome P450 2C9, the AC50 is 5.01 µM (inconclusive).

`Nc1nc(Nc2ccccc2)nc2c1ncn2[C@@H]1O[C@@H](CO)[C@H](O)[C@H]1O`: the half-maximal activity concentration (AC50) at Cytochrome P450 1A2 was 39.8 µM (inconclusive).

Regarding `O=c1c(-c2ccc(F)c(F)c2)nc2cncnc2n1Cc1ccccc1`, the AC50 on Cytochrome P450 2C19 (read-out: AC50) was 0.0501 µM (inconclusive).

For the molecule `N#CCCn1c(=O)c(-c2ccc(Cl)cc2)nc2cnc(Oc3ccccc3)nc21`, at Cytochrome P450 1A2, the AC50 was 0.501 µM (inconclusive).

With `Cc1ccc(S[C@@H](CCN2CC[C@H](C(C)(C)C)CCC2=O)c2ccccc2)cc1`, the half-maximal activity concentration (AC50) in data set [2] was 2.64 µM (active).

With `COc1ccccc1-c1cncnc1Nc1ccc(F)cc1`, the concentration at half-maximal activity (AC50) at Cytochrome P450 2D6 is 15.8 µM (inconclusive).

For the molecule `COc1ncc2nc(-c3cccs3)c(=O)n(CCc3ccccc3)c2n1`, on Cytochrome P450 2C19 (read-out: AC50), the concentration at half-maximal activity (AC50) is 2.51 µM (inconclusive).

Regarding `COC(=O)[C@@]1(Cc2ccc(OC)cc2)[C@H]2c3cc(C(=O)N(C)C)[nH]c3C[C@H]2CN1C(=O)c1ccccc1`, at Cytochrome P450 1A2, the AC50 was 20 µM (inconclusive).

Turning to `COCCNC(=O)COc1ccc(Oc2ccccc2)cc1`, on Cytochrome P450 1A2, the AC50 is 25.1 µM (inconclusive).

As for `CCOCC(=O)Nc1ccc([N+](=O)[O-])cc1OC`, the CC50 in data set [3] was > 50 µM (active).

In the case of `O=C(c1cc(O)nc2ccc(Br)cc12)N1CCC2(CC1)OCCO2`, the AC50 was 28.2 µM (inconclusive) on Cytochrome P450 2C19 (read-out: AC50) and 39.8 µM (inconclusive) at Cytochrome P450 2C9.

As to `O=C1CCC(/C=C/c2ccccc2)=NN1Cc1ccccc1Cl`, the CC50 in data set [3] was 27 µM (active).

`O=C(CN1CCCCC1)Nc1ccc(Br)cc1C(=O)c1ccccc1Cl`: the AC50 on Cytochrome P450 2D6 was 11.2 µM (inconclusive).

Consider `CC(=O)OC[C@@H]1O[C@@H](O/N=C2/C[C@@H](O)[C@@H](O)[C@@H]3[C@@H]4C(=O)N(C[C@@H]5CCCO5)C(=O)[C@H]4CC[C@H]23)[C@H](OC(C)=O)[C@H](OC(C)=O)[C@@H]1OC(C)=O`, for which the concentration at half-maximal activity (AC50) at Cytochrome P450 2D6 is 5.01 µM (inconclusive).

`Cc1noc(C)c1C(=O)N1CCC2(CCCN(CC(C)C)C2)CC1`: the AC50 at Cytochrome P450 2C19 (read-out: AC50) and on Cytochrome P450 2C9 was 39.8 µM (inconclusive) in each case.

For `c1ccc(C(c2ccccc2)N2CCC3(CCNCC3)CC2)cc1`, on Cytochrome P450 2C9, the AC50 is 31.6 µM (inconclusive).

For the molecule `CCCc1cc(COC)c(C#N)c(O)n1`, on Cytochrome P450 1A2, the AC50 was 6.31 µM (inconclusive).

For `c1ccc(-c2nnn(CCN3CCCCC3)n2)cc1`, the results for the AC50 at Cytochrome P450 2D6 and on Cytochrome P450 1A2 were 3.16 µM (inconclusive) and 5.01 µM (inconclusive), respectively.

Turning to `N#Cc1cccc(-c2nc3cnc(N4CCOCC4)nc3n(C[C@H]3CCCO3)c2=O)c1`, the AC50 on Cytochrome P450 1A2 is 0.794 µM (inconclusive).

Consider `Clc1ccc([C@@H](OCCN2CCCCC2)c2ccccc2)cc1`, for which the concentration at half-maximal activity (AC50) was 6.31 µM (inconclusive) on Cytochrome P450 2C19 (read-out: AC50) and 12.6 µM (inconclusive) at Cytochrome P450 1A2.

As to `O=C1CSC(c2ccccn2)N1c1ccc(Cl)c(Cl)c1` (stereo not drawn), the AC50 on Cytochrome P450 2C9 is 20 µM (inconclusive).

Turning to `CCOc1ccc(NC(=O)CN2CCN(S(=O)(=O)c3ccc(Cl)cc3)CC2)cc1`, the concentration at half-maximal activity (AC50) is 0.562 µM (inconclusive) on Cytochrome P450 2C19 (read-out: AC50) and 2 µM (inconclusive) on Cytochrome P450 2C9.

For `O=C(CCn1nc(-c2ccc(Cl)cc2)ccc1=O)NCc1ccccn1`, the AC50 at Cytochrome P450 1A2 was 15.8 µM (inconclusive); on Cytochrome P450 2C9 it was 5.01 µM (inconclusive).

For the molecule `COc1ccccc1CNS(=O)(=O)c1ccc2ncc(C(=O)O)c(O)c2c1`, the AC50 at Cytochrome P450 1A2 was 10 µM (inconclusive); on Cytochrome P450 2C9 it was 11.2 µM (inconclusive).

Consider `COc1ccc(CCNC(=O)CCN2C(=O)C(C)Oc3ccc(C)cc32)cc1OC` (stereo not drawn), for which, on Cytochrome P450 2C9, the half-maximal activity concentration (AC50) was 5.62 µM (inconclusive).

For `CN(Cc1ccco1)c1ncncc1-c1cccc(C#N)c1`, the AC50 at Cytochrome P450 1A2 is 12.6 µM (inconclusive).

With `CC(C)(C)c1c2c(c(C(C)(C)C)c3c1OCN(Cc1ccccc1)C3)OCN(Cc1ccccc1)C2`, the AC50 result on Cytochrome P450 2C19 is “inconclusive”.

For the molecule `C[C@H]1[C@H](C)CC[C@]2(C)CC[C@]3(C)C(=CC(=O)C4[C@@]5(C)CC[C@H](O)C(C)(C)C5CC[C@]43C)[C@H]12` (stereo partly drawn), the AC50 in data set [2] is 4.76 µM (active).

With `O=C(O)c1ccccc1/C=N\N=C1c2ccccc2-c2ccccc21`, the AC50 on Cytochrome P450 2C9 was 7.94 µM (inconclusive).

Take `CCCC[C@@H]1C[C@H]1C(NC(=O)c1ccc(C(F)(F)F)cc1)c1ccc(C(=O)OC)cc1` (stereo partly drawn): the concentration at half-maximal activity (AC50) at Cytochrome P450 1A2 is 15.8 µM (inconclusive).

As to `O=C(CSc1nnc(-c2ccccn2)o1)Nc1cccc(Cl)c1`, the EC50 was 4830 nM (active) in data set [1] and > 120 µM (not active) in the data set with H4.

With `O=c1c(-c2cc(F)cc(F)c2)nc2cnc(N3CCNCC3)nc2n1C1CC1`, the AC50 at Cytochrome P450 2C19 (read-out: AC50) was 20 µM (inconclusive).

For `c1cnc(Nc2nc(-c3ccc4ccccc4c3)cs2)nc1`, the AC50 result on Cytochrome P450 2C19 was “inconclusive”.

In the case of `c1ccc(N2CCC3(CCNCC3)CC2)cc1`, at Cytochrome P450 2D6, the half-maximal activity concentration (AC50) is 15.8 µM (inconclusive).

In the case of `COCCn1c(=O)c(-c2cn(C)c3ccccc23)nc2cnc(Oc3ccccc3)nc21`, the AC50 on Cytochrome P450 1A2 is 10 µM (inconclusive).

For the molecule `Cc1ccc(-c2cccc(C(=O)NCCc3ccccc3)n2)c2ccccc12`, the 50% cytotoxic concentration (CC50) in data set [3] is 16.2 µM (active).

For `CNC(C)c1cc(OC)ccc1OC` (stereo not drawn), the concentration at half-maximal activity (AC50) at Cytochrome P450 2D6 is 25.1 µM (inconclusive).

On to `CCc1ccccc1NC(=O)c1ccc(F)c(S(=O)(=O)N2CCC(C(N)=O)CC2)c1`, for which the AC50 on Cytochrome P450 2C19 (read-out: AC50) was 31.6 µM (inconclusive); at Cytochrome P450 2C9, 25.1 µM (inconclusive).

Regarding `N=C(N)C(/N=N\c1ccccc1)C(=N)N` (stereo not drawn), the AC50 on Cytochrome P450 1A2 is 5.01 µM (inconclusive).

For the molecule `COc1ccc(/N=C2/SCC(c3ccc([N+](=O)[O-])cc3)=NN2CCO)cc1`, the CC50 in data set [3] was 15.8 µM (active).

Consider `Cc1cccn2c(/C=N/OCc3ccc(F)cc3)c(-c3ccc(Cl)cc3)nc12`, for which the concentration at half-maximal activity (AC50) on Cytochrome P450 2C19 (read-out: AC50) is 3.16 µM (inconclusive).

Turning to `O=C1N(c2ccccc2)c2ccccc2C1(Cc1ccncc1)Cc1ccncc1` [LINOPIRDINE], the AC50 at Cytochrome P450 1A2 was 31.6 µM (inconclusive).

(Values after ChEMBL document CHEMBL1201862, “PubChem BioAssay data set” (2004).)
